Data published in publication PMC5844530, “Fosmetpantotenate (RE-024), a phosphopantothenate replacement therapy for pantothenate kinase-associated neurodegeneration: Mechanism of action and efficacy in nonclinical models” (PLoS ONE, 2018).

What was measured:
liver and brain CoA = assay: Labeled experiments: incorporation of isotopically labeled fosmetpantotenate into CoA; format: in vivo, mouse; conditions: 125 μg intrastriatally; 6 h
Description: Fosmetpantotenate was labeled with three ^13C and one ^15N in the PA moiety and with one ^18O in the phosphate moiety, as indicated in Fig 10. The premise of this experiment is the following: if PPA incorporated into CoA originates from fosmetpantotenate metabolism, then all isotope labels (including the ^18O) will be retained in the CoA molecule, resulting in an increase in molecular weight of 6 atomic mass units (AMU) with respect to unlabeled CoA ([M+H]^+ = 774.3 vs 768.3, respectively; Fig 10, Path A). However, if fosmetpantotenate is hydrolyzed to PA, and PA is then re-phosphorylated by WT PanK to yield PPA, or if the ^18O is exchanged with water, then the ^18O would be lost in the process, resulting in a CoA molecule with a 4-AMU increase in molecular weight over unlabeled CoA ([M+H]^+ = 772.3 vs 768.3, respectively, […], Path B). CoA derived from endogenous PA/PPA will have the unchanged molecular weight ([M+H]^+ = 768.3).
Animal phase: C57BL6N mice, 8-week old and 19 to 21 g obtained from Charles River (Como, Italy) were used in these studies. One group of mice (N = 3 per time point) received a single oral dose of 500 mg/kg isotopically labeled fosmetpantotenate dissolved in 20% hydroxypropyl-β-cyclodextrin. Another set of mice (N = 8 per time point) received a direct administration of isotopically labeled fosmetpantotenate at 125 μg (25 mg/mL of aCSF containing 147 mM NaCl, 3.0 mM KCl, 1.2 mM CaCl2, and 1.2 mM MgCl2) via cannula into striatum. Brain, liver, and blood samples were collected at pre-dose, 6 h, 12 h (brain only), and 24 h, and were snap frozen in liquid nitrogen.
Two additional groups of mice (N = 6 per time point for each group) received 3 daily doses (8 am, 2 pm, and 8 pm to mimic an anticipated human dosing schedule) of isotopically labeled fosmetpantotenate at either 1.25 μg (0.625 mg/mL aCSF) or 12.5 μg (6.25 mg/mL aCSF) via ICV infusion cannula (2 μL), for up to 10 consecutive days. Brain (striatum) samples were collected at pre-dose, and at 12 h following the third dose on days 1, 3, 7, and 10, and were snap frozen in liquid nitrogen.
Sample processing: Brain (striatum) and liver tissues were homogenized in a Precellys homogenizer (Bertin technologies, Montigny-le-Bretonneux, France) with 3 volumes of water for each volume of tissue (1:4 dilution). Protein was precipitated by adding 500 μL methanol to 100 μL of homogenate (1:6 dilution), mixed well, and centrifuged. Blood cells (1 volume) were treated with 1:8 v:v water:methanol (1:10 dilution), mixed, and centrifuged. The supernatants (200 μL for brain and blood cells and 100 μL for liver) were dried under nitrogen, reconstituted with 100 μL ammonium acetate 10 mM (pH ~5), and injected (10 μL) into the LC for high resolution mass spectrometry (HRMS) analyses.
CoA determination: An Acquity UPLC (Waters) system was used. Samples were chromatographed on a Luna C18 column (50 x 2.0 mm; 5 μm), with a 0.4 mL/min flow rate and a 10 μL injection volume. The mobile phases were (A), 10 mM ammonium acetate in water, pH 6.8 and (B) acetonitrile:2-propanol (9:1; v:v). The gradient was started with 2% (B) and was increased linearly to reach 20% (B) at 5 min; the gradient was ramped to reach 90% (B) at 5.1 min and kept isocratic at 90% (B) through 7.1 min.
The detector was a Waters QTOF Synapt mass spectrometer, with an electrospray ion source operating in the positive scanning mode acquiring in full scan mode (accuracy <5 ppm). The following exact masses were determined: 768.1230 for CoA, 772.1301 for CoA +4 AMU, and 774.1344 for CoA +6 AMU.
The CoA levels obtained by MS/MS analyses were corrected for ^18O isotopic incorporation. CoA levels were not adjusted for the 1% and 2% of ^12C and ^14N, respectively, in the labeled fosmetpantotenate. […]

[1] = Metabolic stability in rat liver microsomes; format: in vitro ADME; conditions: pooled liver microsomes
Method: Metabolic stability in blood and liver microsomes: Fosmetpantotenate or its individual diastereomers (5 μM, n = 2, 37°C) were incubated in mouse, rat, cynomolgus monkey, and human whole blood. Samples (50 μL) were taken at 0, 5, 15, 30, and 60 min. Incubations of fosmetpantotenate or its individual diastereomers (1 μM, n = 2, 37°C) in pooled liver microsomes (0.25 mg protein/mL in 0.1 M phosphate buffer pH 7.4) were initiated with the addition of nicotinamide adenine dinucleotide phosphate (NADPH; 1 mM). Aliquots (100 μL) were obtained at 0, 5, 10, 20, and 40 min and added to 150 μL of 0.1% formic acid in acetonitrile-containing carbamazepine (0.5 μM) as an analytical internal standard, centrifuged, and the supernatants analyzed by LC-MS/MS.
Bioanalysis for determinations of analyte stability: Samples were analyzed using a benchtop tandem quadrupole detector (TQD) mass spectrometer (Waters Ltd, Centennial Park, Hertfordshire). […] Suitable retention and peak shape with separation of the 2 diastereomers were obtained. The chromatography column was a Phenomenex-Kinetex XB C18 (2.10 x 50 mm; 2.6 μm), with a 0.7 mL/min flow rate and a 2 μL injection volume. […]
The percent of compound remaining was determined from the MRM area response in each sample relative to that in the T = 0 samples (normalized for internal standard). […]

COC(=O)CCNC(=O)[C@H](O)C(C)(C)COP(=O)(N[C@@H](C)C(=O)OC)Oc1ccccc1 (mixture of isomers) [Fosmetpantotenate]
Brain CoA (%) +6 AMU (liver and brain CoA): 36.2% | half-life at 1 μM ([1]; pH 7.4, 1 μM, NADPH): 8 min | microsomal CLint at 1 μM ([1]; pH 7.4, read-out: intrinsic clearance): 335 µL/min/mg
